Results reported in ChEMBL document CHEMBL3885861, “Open TG-GATES”.

Species: Rattus norvegicus
Assay: Open TG-GATES - Regimen: Daily Repeat
Assay type: toxicity, organism-based, Sprague-Dawley
Design: regimen Daily Repeat, gender Male, age 6 weeks
Conditions: in vivo, po, route gavage; for KIDNEY_L / KIDNEY_R / KIDNEY_TOTAL: tissue Kidney; for AST / CRE / GLC / IP / K / LDH / RALB / TBIL / TC / TP / gamma-GTP: tissue Plasma
[1] = 0 mg/kg, 72 h, dose level Control, time 3 day
[2] = 0 mg/kg, 72 h, tissue Blood, dose level Control, time 3 day
[3] = 0 mg/kg, […], dose level Control, time 7 day
[4] = 0 mg/kg, […], dose level Control, time 14 day
[5] = 0 mg/kg, […], dose level Control, time 28 day
[6] = 0 mg/kg, […], tissue Blood, dose level Control, time 7 day
[7] = 0 mg/kg, […], tissue Blood, dose level Control, time 14 day
[8] = 0 mg/kg, […], tissue Blood, dose level Control, time 28 day
[9] = 10 mg/kg, 72 h, dose level Low, time 3 day
[10] = 10 mg/kg, 72 h, tissue Blood, dose level Low, time 3 day
[11] = 10 mg/kg, […], dose level Low, time 7 day
[12] = 10 mg/kg, […], dose level Low, time 14 day
[13] = 10 mg/kg, […], dose level Low, time 28 day
[14] = 10 mg/kg, […], tissue Blood, dose level Low, time 7 day
[15] = 10 mg/kg, […], tissue Blood, dose level Low, time 14 day
[16] = 10 mg/kg, […], tissue Blood, dose level Low, time 28 day

CN(C)CCCN1c2ccccc2CCc2ccccc21 [IMIPRAMINE]
TERMINAL_BW [1]: 230.9 g
APTT [2]: 16.3 s
Bas [2]: 0%
Eos [2]: 1%
Fbg [2]: 278.8 mg/dL
Ht [2]: 40.6%
Lym [2]: 77.8%
MCHC [2]: 32.6%
MCV [2]: 63.2 fL
Mono [2]: 3%
PT [2]: 15.8 s
Plat [2]: 111.4 x10_4/uL
RBC [2]: 642.2 x10_4/ul
Ret [2]: 6.7%
KIDNEY_L [1]: 1 g
KIDNEY_R [1]: 1 g
KIDNEY_TOTAL [1]: 2 g
AST [1]: 68.2 IU/L
CRE [1]: 0.2 mg/dL
GLC [1]: 180.6 mg/dL
IP [1]: 7.7 mg/dL
K [1]: 4.2 meq/L
LDH [1]: 64.8 IU/L
RALB [1]: 2.6 g/dL
TBIL [1]: 0.056 mg/dL
TC [1]: 79.2 mg/dL
TP [1]: 5.7 g/dL
gamma-GTP [1]: 1 IU/L
TERMINAL_BW [3]: 270.9 g
TERMINAL_BW [4]: 328.3 g
TERMINAL_BW [5]: 419.8 g
APTT [6]: 15.4 s
Bas [6]: 0.2%
Eos [6]: 1%
Fbg [6]: 292 mg/dL
Ht [6]: 41.2%
Lym [6]: 77.4%
MCHC [6]: 32.9%
MCV [6]: 63.5 fL
Mono [6]: 2.4%
PT [6]: 15.4 s
Plat [6]: 123.5 x10_4/uL
RBC [6]: 649.4 x10_4/ul
Ret [6]: 6.1%
APTT [7]: 16 s
Bas [7]: 0.4%
Eos [7]: 0.8%
Fbg [7]: 279.4 mg/dL
Ht [7]: 42.1%
Lym [7]: 79.2%
MCHC [7]: 33.2%
MCV [7]: 60.6 fL
Mono [7]: 1.8%
PT [7]: 15.6 s
Plat [7]: 119.8 x10_4/uL
RBC [7]: 695.6 x10_4/ul
Ret [7]: 4.6%
APTT [8]: 15.9 s
Bas [8]: 0%
Eos [8]: 1.2%
Fbg [8]: 294.2 mg/dL
Ht [8]: 44.1%
Lym [8]: 80.6%
MCHC [8]: 33.5%
MCV [8]: 57.9 fL
Mono [8]: 2.2%
PT [8]: 15.4 s
Plat [8]: 94.4 x10_4/uL
RBC [8]: 761.4 x10_4/ul
Ret [8]: 2.4%
KIDNEY_L [3]: 1.1 g
KIDNEY_R [3]: 1.1 g
KIDNEY_TOTAL [3]: 2.2 g
KIDNEY_L [4]: 1.3 g
KIDNEY_R [4]: 1.2 g
KIDNEY_TOTAL [4]: 2.5 g
KIDNEY_L [5]: 1.4 g
KIDNEY_R [5]: 1.4 g
KIDNEY_TOTAL [5]: 2.9 g
AST [3]: 66.2 IU/L
CRE [3]: 0.2 mg/dL
GLC [3]: 185.6 mg/dL
IP [3]: 7.7 mg/dL
K [3]: 4 meq/L
LDH [3]: 114 IU/L
RALB [3]: 2.6 g/dL
TBIL [3]: 0.056 mg/dL
TC [3]: 81.4 mg/dL
TP [3]: 5.9 g/dL
gamma-GTP [3]: 0.4 IU/L
AST [4]: 63.6 IU/L
CRE [4]: 0.2 mg/dL
GLC [4]: 183.8 mg/dL
IP [4]: 6.8 mg/dL
K [4]: 4.2 meq/L
LDH [4]: 97.4 IU/L
RALB [4]: 2.6 g/dL
TBIL [4]: 0.05 mg/dL
TC [4]: 72.6 mg/dL
TP [4]: 5.9 g/dL
gamma-GTP [4]: 1 IU/L
AST [5]: 55.6 IU/L
CRE [5]: 0.2 mg/dL
GLC [5]: 188.8 mg/dL
IP [5]: 6.9 mg/dL
K [5]: 3.9 meq/L
LDH [5]: 43.4 IU/L
RALB [5]: 2.8 g/dL
TBIL [5]: 0.056 mg/dL
TC [5]: 68 mg/dL
TP [5]: 6.3 g/dL
gamma-GTP [5]: 0.6 IU/L
TERMINAL_BW [9]: 229.5 g
APTT [10]: 16.1 s
Bas [10]: 0%
Eos [10]: 1%
Fbg [10]: 294 mg/dL
Ht [10]: 41.4%
Lym [10]: 82.6%
MCHC [10]: 32.5%
MCV [10]: 65.4 fL
Mono [10]: 2.8%
Neu [10]: 12.8%
PT [10]: 15.9 s
Plat [10]: 115.2 x10_4/uL
RBC [10]: 633 x10_4/ul
Ret [10]: 5.6%
KIDNEY_L [9]: 1 g
KIDNEY_R [9]: 1 g
KIDNEY_TOTAL [9]: 2 g
AST [9]: 67 IU/L
CRE [9]: 0.2 mg/dL
GLC [9]: 185.4 mg/dL
IP [9]: 7.7 mg/dL
K [9]: 4.1 meq/L
LDH [9]: 63.4 IU/L
RALB [9]: 2.6 g/dL
TBIL [9]: 0.06 mg/dL
TC [9]: 81.6 mg/dL
TP [9]: 5.8 g/dL
gamma-GTP [9]: 1 IU/L
TERMINAL_BW [11]: 262.8 g
TERMINAL_BW [12]: 310.9 g
TERMINAL_BW [13]: 402.9 g
APTT [14]: 15.6 s
Bas [14]: 0%
Eos [14]: 1.2%
Fbg [14]: 291.6 mg/dL
Ht [14]: 40.2%
Lym [14]: 80%
MCHC [14]: 33.3%
MCV [14]: 62.5 fL
Mono [14]: 1.8%
PT [14]: 15.9 s
Plat [14]: 120.1 x10_4/uL
RBC [14]: 644.6 x10_4/ul
Ret [14]: 4.8%
APTT [15]: 16.5 s
Bas [15]: 0.2%
Eos [15]: 0.8%
Fbg [15]: 281.2 mg/dL
Ht [15]: 41.8%
Lym [15]: 83.2%
MCHC [15]: 33.8%
MCV [15]: 60.5 fL
Mono [15]: 2.2%
PT [15]: 16.3 s
Plat [15]: 108.3 x10_4/uL
RBC [15]: 691.6 x10_4/ul
Ret [15]: 4.1%
APTT [16]: 17.3 s
Bas [16]: 0.4%
Eos [16]: 1.4%
Fbg [16]: 284.6 mg/dL
Ht [16]: 43.7%
Lym [16]: 81.4%
MCHC [16]: 34%
MCV [16]: 56.5 fL
Mono [16]: 2.4%
PT [16]: 16.4 s
Plat [16]: 96.2 x10_4/uL
RBC [16]: 773.2 x10_4/ul
Ret [16]: 2.3%
KIDNEY_L [11]: 1.1 g
KIDNEY_R [11]: 1.1 g
KIDNEY_TOTAL [11]: 2.1 g
KIDNEY_L [12]: 1.3 g
KIDNEY_R [12]: 1.2 g
KIDNEY_TOTAL [12]: 2.5 g
KIDNEY_L [13]: 1.4 g
KIDNEY_R [13]: 1.3 g
KIDNEY_TOTAL [13]: 2.7 g
AST [11]: 63.8 IU/L
CRE [11]: 0.2 mg/dL
GLC [11]: 182.6 mg/dL
IP [11]: 7.4 mg/dL
K [11]: 4.2 meq/L
LDH [11]: 123.4 IU/L
RALB [11]: 2.6 g/dL
TBIL [11]: 0.05 mg/dL
TC [11]: 75.8 mg/dL
TP [11]: 5.9 g/dL
gamma-GTP [11]: 0.8 IU/L
AST [12]: 66.4 IU/L
CRE [12]: 0.2 mg/dL
GLC [12]: 175.6 mg/dL
IP [12]: 6.8 mg/dL
K [12]: 4.3 meq/L
LDH [12]: 62.8 IU/L
RALB [12]: 2.7 g/dL
TBIL [12]: 0.048 mg/dL
TC [12]: 72 mg/dL
TP [12]: 6.2 g/dL
gamma-GTP [12]: 0.4 IU/L
AST [13]: 62.2 IU/L
CRE [13]: 0.2 mg/dL
GLC [13]: 183.2 mg/dL
IP [13]: 6.9 mg/dL
K [13]: 3.8 meq/L
LDH [13]: 53.6 IU/L
RALB [13]: 2.8 g/dL
TBIL [13]: 0.052 mg/dL
TC [13]: 64.2 mg/dL
TP [13]: 6.3 g/dL
gamma-GTP [13]: 1 IU/L
